Two molecules from US4708964A, “Lipoxygenase inhibitors” (Chemex Pharmaceuticals, priority 1984, dated 1987) can be followed below.

The target in the test is T1, soybean lipoxidase type V (Glycine max, UniProt P08170).
T1 sequence (P08170 1-839): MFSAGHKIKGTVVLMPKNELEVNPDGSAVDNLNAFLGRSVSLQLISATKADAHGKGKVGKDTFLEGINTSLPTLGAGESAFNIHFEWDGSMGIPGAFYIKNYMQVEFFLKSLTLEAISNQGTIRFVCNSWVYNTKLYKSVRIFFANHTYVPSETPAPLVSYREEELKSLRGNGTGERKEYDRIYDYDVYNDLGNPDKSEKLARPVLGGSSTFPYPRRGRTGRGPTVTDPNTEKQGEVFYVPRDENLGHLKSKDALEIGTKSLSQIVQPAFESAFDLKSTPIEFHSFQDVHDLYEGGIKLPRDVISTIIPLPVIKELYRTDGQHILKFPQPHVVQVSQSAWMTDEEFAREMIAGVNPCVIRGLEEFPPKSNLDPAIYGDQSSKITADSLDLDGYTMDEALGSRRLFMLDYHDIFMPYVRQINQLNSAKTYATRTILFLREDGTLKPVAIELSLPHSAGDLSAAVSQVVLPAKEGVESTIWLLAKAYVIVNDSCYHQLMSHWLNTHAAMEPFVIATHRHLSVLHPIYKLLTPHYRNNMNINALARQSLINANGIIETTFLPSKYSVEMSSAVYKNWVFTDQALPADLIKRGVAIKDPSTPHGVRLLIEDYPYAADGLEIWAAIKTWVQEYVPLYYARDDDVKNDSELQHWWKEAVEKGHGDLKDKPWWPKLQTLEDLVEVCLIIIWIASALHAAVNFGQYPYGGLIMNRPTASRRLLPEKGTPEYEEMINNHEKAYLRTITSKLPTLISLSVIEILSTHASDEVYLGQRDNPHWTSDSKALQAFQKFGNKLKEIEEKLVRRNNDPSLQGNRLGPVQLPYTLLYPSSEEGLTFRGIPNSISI
As to conditions: for A234 nm/min.: 25° C., 0.1M borate pH 9.

Read-outs that look alike come from different tables or passages of the source.

Turning to `CC(Cc1ccc(O)c(O)c1)C(C)Cc1ccc(O)c(O)c1` (centres unmarked) [NDGA, nordihydroguaiaretic acid], the A234 nm/min. (NDGA 1.3 × 10^-4 M) stood at 0.217 min⁻¹, the A234 nm/min. (NDGA 2.6 × 10^-4 M) was 0.186 min⁻¹, the A234 nm/min. (NDGA 3.2 × 10^-4 M) came to 0.100 min⁻¹ and the A234 nm/min. (NDGA 3.9 × 10^-4 M) came to 0.035 min⁻¹. Besides, where the note is “pH 9”, the inhibition at 130 µM was 1%. The inhibition at 260 µM (pH 9) came out at 14%. Also, for the setting “pH 9”, the inhibition at 320 µM turned out to be 54%.

For the molecule `Oc1cccc2ccccc12` [alpha-Naphthol, alpha-naphthol], the A234 nm/min. entry (alpha-Naphthol 2.5 × 10^-5 M) is “.230 min⁻¹”. Besides, the A234 nm/min. entry (alpha-Naphthol 6.2 × 10^-5 M) is “.141 min⁻¹”. In addition, for the setting “alpha-Naphthol 7.5 × 10^-5 M”, the A234 nm/min. result was “.074 min⁻¹”. Also, the A234 nm/min. result (alpha-Naphthol 8.8 × 10^-5 M) was “.069 min⁻¹”. The A234 nm/min. entry (alpha-Naphthol 12.5 × 10^-5 M) is “.021 min⁻¹”. Moreover, for the setting “pH 9”, the inhibition at 25 µM was 12%, testing at 62 µM gave an inhibition of 46%, 75 µM produced 72% inhibition and testing at 88 µM gave an inhibition of 74%. Also, testing at 125 µM (pH 9) gave an inhibition of 92%.

As a reminder, the inhibition is the relative decrease from the control value, in per cent.
